{"source": "patent US11873499B2", "about": "“Methods of increasing nutrient use efficiency” (Institute of Genetics and Developmental Biology Chinese …, priority 2018, dated 2024)", "key": {"[1]": {"test_system": "OsAMT1.1 and OsGS1.2 mRNA", "experiment": "qRT-PCR relative root mRNA abundance in plants treated with GA and/or PAC", "format": "in vivo, rice", "settings": "FIG. 4b", "excerpt": "(§1) Data shown as mean±s.e.m. (n=9). b, Relative root mRNA abundance in plants treated with GA and/or paclobutrazol (PAC). Data shown as mean±s.e.m. (n=3). c, Extent of ChIP-PCR OsGRF4-mediated enrichment of GCGG-containing promoter fragments from OsAMT1.1 (fragment 5) and OsGS1.2 (fragment 2) (shown in FIG. 2i) varies in response to treatment with GA and/or PAC. Data shown as mean±s.e.m. (n=3). d, BiFC assays reveal mutual interactions between SLR1, OsGRF4 and OsGIF1 in nuclei of tobacco leaf epidermal cell nuclei. Scale bar, 60 μm. e, Co-IP experiments with Flag-tagged SLR1 and HA-tagged OsGRF4 or HA-tagged OsGIF1. f, FRET images. Donor group: OsGIF1-CFP only; Acceptor group: OsGRF4-YFP only; FRET groups: OsGIF1-CFP and OsGRF4-YFP with and without SLR1. Scale bar, 200 μm. g, Mean N-FRET data for OsGIF1-CFP and OsGRF4-YFP channels. Data shown as mean±s.e.m. (n=6). […] OsGRF4-activated promotion of pOsAMT1.1 and pOsGS1.2 promoter::Luciferase fusion constructs is enhanced by OsGIF1 and inhibited by SLR1. Data shown as mean±s.e.m. (n=6). Statistical analyses used Duncan's multiple range tests, the same lowercase letter denotes non-significant difference between means (P>0.05; panels a-c, and i).\nTotal RNAs were extracted from different rice plant organs using the TRIzol reagent (Invitrogen), and then treated with RNase-free DNase I (Invitrogen) according to the manufacturer's protocol. […]"}, "[2]": {"test_system": "OsAMT1.1 and OsGS1.2 promoters", "experiment": "ChIP-PCR OsGRF4-mediated enrichment of GCGG-containing promoter fragments", "format": "in vivo, rice", "settings": "treated with GA and/or PAC; FIG. 4c", "excerpt": "as §1, with “Statistical analyses used Duncan's multiple range tests, the same lowercase letter denotes non-significant difference between means (P>0.05; panels a-c, and i).” left out\n˜2 g of two-week-old seedlings of transgenic p35S::flag-OsGRF4^ngr2 rice plants were fixed with 1% formaldehyde under vacuum for 15 min at 20-25° C., and then homogenized in liquid nitrogen. […] The reverse-crosslinked and precipitated DNA then served as template for quantitative RT-PCR."}, "[3]": {"test_system": "NJ6 and NJ6-sd1 rice plants", "experiment": "15N uptake analysis (root 15NH4+ uptake rate) in rice plants treated with GA and/or PAC", "format": "in vivo", "settings": "FIG. 4a; for 15NH4+ uptake rate: 100 μM GA (GA3) and/or 2 μM paclobutrazol (PAC)", "excerpt": "as §1\nHydroponic culture conditions were modified from those of Liu (2004)^32. Seeds were disinfected in 20% sodium hypochlorite solution for 30 min, thoroughly washed with deionized water, and then germinated in moist Perlite. 7-day-old seedlings were then selected and transplanted to PVC pots containing 40 L+N nutrient solution (1.25 mM NH4NO3, 0.5 mM NaH2PO4·2H2O, 0.75 mM K2SO4, 1 mM CaCl2), 1.667 mM MgSO4.7H2O, 40 μM Fe-EDTA (Na), 19 μM H3BO3, 9.1 μM MnSO4·H2O, 0.15 μM ZnSO4·7H2O, 0.16 μM CuSO4, and 0.52 μM […], pH 5.5). […]\nFollowing growth in hydroponic culture for 4 weeks, rice root ^15NO3^− and ^15NH4^+ influx measurements were as described elsewhere^37,38. […] Roots and shoots were dried overnight at 80° C., and the ^15N content was measured using the Isoprime 100 (Elementar, Germany)."}, "[4]": {"test_system": "pOscycA1;1 and pOscdc2Os-3 promoters", "experiment": "Transient transactivation assay (promoter::Luciferase) in rice protoplasts", "format": "cell-based", "settings": "FIG. 5f", "excerpt": "Data shown as mean±s.e.m. (n=3). Abundances expressed relative to the level in NJ6-sd1. b, ChIP-PCR assays. Diagram depicts the OsPsbS1, OsTPS1 and OsSWEET11 promoters and regions used for ChIP-PCR. c, Transactivation assays. Data shown as mean±s.e.m. (n=9). d, Relative abundances of mRNAs transcribed from cell-cycle regulatory genes. Data shown as mean±s.e.m. (n=3). Abundances expressed relative to the level in NJ6-sd1. e, ChIP-PCR assays. Diagram depicts the OscycA1.1 and Oscdc2Os-3 promoters and regions used for Chl P-PCR. f, Transactivation assays. Data shown as mean±s.e.m. (n=12). Statistical analyses used Duncan's multiple range tests, the same lowercase letter denotes a non-significant difference between means (P>0.05).\n˜3-kb DNA promoter fragments from each of OsAMT1.1, OsAMT1.2, OsGS1.2, OsGS2, OsNADH-GOGAT2, OsFd-GOGAT, OsCAB1, OsTPS1, OsSWEET11, OscycA1;1 or Oscdc2Os-3 were amplified from NJ6, and then subcloned into a pUC19 vector containing the firefly LUC reporter gene driven by the 35S minimal TATA box and 5×GAL4 binding elements, thus generating reporter plasmids containing specific promoters fused to LUC. The full-length OsGRF4 cDNA was amplified and fused to sequence encoding GAL4BD, thus generating the effector plasmid pRTBD-OsGRF4. Transient transactivation assays were performed using rice protoplasts as described elsewhere^36. […]"}, "[5]": {"test_system": "Glutamine synthase", "experiment": "Glutamine synthase (GS) activity in roots and shoots of treated rice plants", "format": "in vivo", "settings": "roots and shoots of 2-week-old rice plants; 100 μM GA (GA3); FIG. 13", "method": "Data shown as mean±s.e.m. (n=3). b, GS activities in shoots of plants treated with 100 μM GA (GA3) and/or 2 μM paclobutrazol (PAC), genotypes as indicated. Data shown as mean±s.e.m. (n=3).\nGlutamine synthase and nitrate reductase activities were respectively determined with the Glutamine Synthetase Kit (Solarbio LIFE SCIENCES, BC0910) and the Nitrate Reductase Kit (Solarbio LIFE SCIENCES, BC0080) following the manufacturer's instructions."}, "[6]": {"test_system": "OsGRF4 mRNA", "experiment": "OsGRF4 mRNA abundance, effect of GA and PAC", "format": "in vivo, rice", "settings": "FIG. 15e, f", "excerpt": "In the absence of GA, SLR1 inhibits OsGRF4-OsGIF1 promotion of OsGRF4 transcription. In the presence of GA, SLR1 is destroyed via proteasome-mediated degradation, this promoting OsGRF4-OsGIF1 activated OsGRF4 transcription.\nTotal RNAs were extracted from different rice plant organs using the TRIzol reagent (Invitrogen), and then treated with RNase-free DNase I (Invitrogen) according to the manufacturer's protocol. Full-length cDNA was then reverse-transcribed using a cDNA synthesis kit (TRANSGEN, AE311). Subsequent qRT-PCR was performed according to the manufacturer's instructions (TRANSGEN, AQ101), using three independent RNA preparations as biological replicates. Rice Actin2 gene transcripts were used as a reference."}}}
{"smiles": "CC(C)(C)[C@@H](O)[C@@H](Cc1ccc(Cl)cc1)n1cncn1", "note": "(racemic) [PAC, paclobutrazol]", "values": [{"measurement": "OsAMT1.1 and OsGS1.2 mRNA abundances", "setting": "[1]", "result": "reduced"}, {"measurement": "ChIP-PCR enrichment of GCGG motif-containing fragments from the OsAMT1.1 and OsGS1.2 promoters", "setting": "[2]", "result": "reduces"}, {"measurement": "15NH4+ uptake rate", "setting": "[3]", "result": "reduces"}]}
{"smiles": "C=C1C[C@]23C[C@@]1(O)CC[C@H]2[C@@]12C=C[C@H](O)[C@@](C)(C(=O)O1)[C@H]2[C@@H]3C(=O)O", "note": "[GA, Gibberellic acid]", "values": [{"measurement": "OsGRF4-OsGIF1 complex activation of transcription from pOscycA1;1 and pOscdc2Os-3 promoters", "setting": "[4]", "result": "promotes"}, {"measurement": "GS activity", "setting": "[5]", "result": "promotes"}, {"measurement": "OsGRF4 mRNA abundance", "setting": "[6]", "result": "GA-regulated"}, {"measurement": "OsAMT1.1 and OsGS1.2 mRNA abundances", "setting": "[1]", "result": "increased"}, {"measurement": "ChIP-PCR enrichment of GCGG motif-containing fragments from the OsAMT1.1 and OsGS1.2 promoters", "setting": "[2]", "result": "promotes"}, {"measurement": "15NH4+ uptake rate", "setting": "[3]", "result": "promotes"}, {"measurement": "effect on the PAC-caused reduction of 15NH4+ uptake", "setting": "[3]; GA together with PAC", "result": "abolishes this effect"}]}
